The text below walks through data of patent US20240173295A1, “A STABLE, EMULSION-FORMING LIQUID COMPOSITION COMPRISING AMINO ACIDS” (Brain Luxury Inc., priority 2021, published 2024).

A short description of the series: Chemical stability of liquid composition on storage. The format is physicochemical. On the procedure: The chemical stability of a disclosed liquid composition stored at 6° C. or 22° C. was evaluated at 2 months and three months. The microbial stability and shelf life was also evaluated. A liquid composition having a pH of about 3.7 was subjected to high pressure processing at 6000 bar for two cycles of 5 minutes.

Where [1] appears, read: stored at 6° C. or 22° C., adjusted for slightly lower oil volume in 3 months preparation (55 ml vs 60 ml).

Read-outs that look alike come from different tables or passages of the source. Marks after values point to notes of the source that are not given here.

As for `NCC(=O)O` [Glycine], under “stored at 6° C. or 22° C.”, the “amount in liquid composition at 2 Months (chemical stability)” value (from here on “amount in liquid composition at 2 Months”) was 3319 mg/60 mL and the “amount in liquid composition at 3 Months (chemical stability)” value (shortened to “amount in liquid composition at 3 Months”) is on record as 3303 mg/60 mL.

`N[C@@H](Cc1c[nH]c2ccccc12)C(=O)O` [L-Tryptophan]: for the setting “stored at 6° C. or 22° C.”, the “amount in liquid composition at 2 Months” value worked out at 420 mg/60 mL and the “amount in liquid composition at 3 Months” value was 426 mg/60 mL.

Turning to `[Mg+2]` [Magnesium], the “amount in liquid composition at 2 Months” value stood at 15 mg/60 mL and the “amount in liquid composition at 3 Months” value came out at 27.8 mg/60 mL.

On to `[Na]` [Sodium], for which, for the setting “stored at 6° C. or 22° C.”, the “amount in liquid composition at 2 Months” value is 1.23 mg/60 mL and the “amount in liquid composition at 3 Months” value is recorded as 0.6 mg/60 mL.

Regarding `O=C1O[C@H]([C@@H](O)CO)C(O)=C1O` [Vitamin C], under “stored at 6° C. or 22° C.”, the “amount in liquid composition at 2 Months” value came out at 326 mg/60 mL and the “amount in liquid composition at 3 Months” value was found to be 245 mg/60 mL.

As to `[Zn]` [Zinc], under “stored at 6° C. or 22° C.”, the “amount in liquid composition at 2 Months” value was 6 mg/60 mL and the “amount in liquid composition at 3 Months” value was 5.7 mg/60 mL.

As to `CC/C=C\C/C=C\C/C=C\CCCCCCCC(=O)O` [alpha linoleic acid], the “amount in liquid composition at 2 Months” value was 1026 mg/60 mL and the “amount in liquid composition at 3 Months” value is given as 1025* mg/60 mL.

With `CC/C=C\C/C=C\C/C=C\C/C=C\C/C=C\CCCC(=O)O` [eicosapentaenoic acid], the “amount in liquid composition at 2 Months” value (stored at 6° C. or 22° C.) came out at 319 mg/60 mL. Also, the “amount in liquid composition at 3 Months” value under setting [1] was 297* mg/60 mL.

On to Medium chain triglycerides, for which the “amount in liquid composition at 2 Months” value came out at 2209 mg/60 mL and the “amount in liquid composition at 3 Months” value is on record as 2407* mg/60 mL.

As for Vitamin D, for the setting “stored at 6° C. or 22° C.”, the “amount in liquid composition at 2 Months” value is on record as 25 mcg/60 mL. Moreover, the “amount in liquid composition at 3 Months” value under setting [1] is 26* mcg/60 mL.

For Vitamin E, the “amount in liquid composition at 3 Months” value (stored at 6° C. or 22° C.) stood at 2.2 mg/60 mL.

Regarding docosapenataenoic acid, the “amount in liquid composition at 2 Months” value (stored at 6° C. or 22° C.) came out at 632 mg/60 mL. In addition, under setting [1], the “amount in liquid composition at 3 Months” value is 587* mg/60 mL.
